# Source: article PMC12156367, “Synthesis and Biological Evaluation of Seco-Coumarin/Furoxan Hybrids as Potent Anti-Tumor Agents to Overcome Multidrug Resistance via Multiple Mechanisms” (Molecules, 2025)
# Experiments:
# MCF-7 = experiment: Lysosomal and mitochondrial NO levels (Lyso-NO, Mito-NO probes), MCF-7; assay type: cell-based, human; details: 9e
# Protocol: Lysosomal NO probes (Lyso-NO) and mitochondrial NO probes (Mito-NO), which are specifically used for detecting the nitric oxide levels in lysosomes and mitochondria, respectively, were provided by Professor Weili Zhao (Fudan University, China). Cells (MCF-7 or MCF-7/ADR) were plated in 6-well plates (2 × 10^5 cells/well). After overnight incubation, indicated concentrations of 9e were added to the cells for 4 h. Cells were first treated with 10 μM Lyso-NO or Mito-NO (15 min, 37 °C), then counterstained with Hoechst 33,342 nuclear dye (Beyotime, China; 10 min, 37 °C). Finally, the fluorescence intensity was measured under a fluorescence microscope (Olympus, Tokyo, Japan).
# [1] = tested on: HUVEC (human umbilical vein endothelial cell lines); experiment: Cytotoxicity screen in HUVEC; assay type: cell-based; details: 500 nM concentration
# Text: (§1) The MDA-MB-468 cell line was procured from the Cell Bank of the Chinese Academy of Sciences. The MCF-7, MCF-7/ADR, MCF-10A, and MDA-MB-231 cell lines were kindly provided by Professor Xianyi Sha (Fudan University, Shanghai, China). The HUVEC cells were kindly provided by Associate Professor Hulie Zeng (Fudan University, Shanghai, China). The MDA-MB-468, MDA-MB-231, MCF-7, MCF-10A, and HUVEC cells were cultivated in DMEM (Service Biotechnology, China) supplemented with 10% FBS (Capricorn Scientific, Germany) and 1% penicillin-streptomycin (Meilunbio, Dalian, China). For the MCF-7/ADR cells, they were cultured in RPMI-1640 (Service Biotechnology, Wuhan, China), containing 10% FBS and 1% penicillin-streptomycin. Additionally, 500 ng/mL of doxorubicin (Sigma-Aldrich, Saint Louis, MO, USA) was incorporated into the RPMI-1640 culture medium to keep drug resistance. All cell lines were cultured in a humidified incubator at 37 °C with a 5% CO2 atmosphere.
# Following harvest during logarithmic growth, cells were plated in 96-well culture plates at an initial density of 5000 cells per well. Incubate the plate overnight at 37 °C to allow the cells to adhere. […] The OD value at 570nm was measured using a microplate reader (Thermo Fisher, Waltham, MA, USA). Cell proliferation inhibition was determined using the following formula:Inhibition (%) = [(ODDMSO − ODcompd.)/(ODDMSO − ODblank)] × 100 […]
# MCF-7/ADR = experiment: Cell apoptosis analysis (Annexin V-FITC/PI flow cytometry); assay type: cell-based, human; details: 9e 10 nM, control 5.53%
# Protocol: MCF-7/ADR (2 × 10^5 cells/well) were plated in 6-well plates and cultured overnight. Following 24 h treatment with specified concentrations of 9e, cells were harvested and analyzed by Annexin V-FITC apoptosis detection kit (Beyotime, Shanghai, China). Cell populations were subsequently analyzed by flow cytometry (Beckman, Brea, CA, USA).
# [2] = tested on: MCF-7 (human breast cancer cell line); experiment: In vitro antiproliferative assay (MTT, 48 h), MCF-7; assay type: cell-based; details: MCF7, mean of three determinations
# Text: as §1, with “Additionally, 500 ng/mL of doxorubicin (Sigma-Aldrich, Saint Louis, MO, USA) was incorporated into the RPMI-1640 culture medium to keep drug resistance. All cell lines were cultured in a humidified incubator at 37 °C with a 5% CO2 atmosphere.” left out
# Following harvest during logarithmic growth, cells were plated in 96-well culture plates at an initial density of 5000 cells per well. […] The OD value at 570nm was measured using a microplate reader (Thermo Fisher, Waltham, MA, USA). Cell proliferation inhibition was determined using the following formula:Inhibition (%) = [(ODDMSO − ODcompd.)/(ODDMSO − ODblank)] × 100
# GraphPad Prism software 9 was used to calculate the IC50 values. […] For instance, in the cell experiment, we recorded the cell viability values at different drug concentrations. […]
smiles,measurement,setting,value
"COc1ccc(CCC(=O)c2ccc(OCCOc3no[n+]([O-])c3S(=O)(=O)c3ccccc3)cc2OC)cc1 [Compound 9e, 4-(2-(3-methoxy-4-(3-(4-methoxyphenyl)propanoyl)phenoxy)ethoxy)-3-(phenylsulfonyl)-1,2,5-oxadiazole 2-oxide]",Lyso-NO and Mito-NO probe fluorescence intensity,MCF-7,no increase in fluorescence intensity
same,cell survival probability in HUVEC,[1],over 90%
same,apoptosis (Q2+Q3),MCF-7/ADR,37.1%
same,IC50,[2],4.23 µM
